Reference: patent publication US10537557B2, “Methods of treating respiratory disorders” (CASE WESTERN RESERVE UNIVERSITY, priority 2016, dated 2020)

Assays:
hyperoxia-exposed mice = test: Lung mechanics: methacholine challenge after neonatal hyperoxia (BPD model), flexiVent Rrs; type: in vivo, C57BL/6 mice; conditions: for Rrs in response to aerosolized methacholine challenge (airway hyperreactivity): 3-week-old mice raised in hyperoxia (60%), compared with room air controls; for Rrs increase in hyperoxia, methacholine dose response (FIG. 5A-B): at 3 weeks and after room air recovery at 6 weeks of age; for Rrs in response to aerosolized methacholine challenge (airway hyperresponsiveness): six-week-old mice, 3 weeks neonatal hyperoxia then room air recovery
Procedure: Animal protocols were approved by the Institutional Animal Care and Use Committee at Case Western Reserve University (Cleveland, Ohio). Timed pregnant C57BL/6 mice (Charles River Laboratories, Wilmington, Mass.) were maintained on 12-hour light-dark cycles with ad libitum standard food and water. Within 24 hours of birth, litters were pooled and randomized into exposure groups. Paired with a nursing dam, pups were raised in 60% oxygen or room air (21%) for 21 days. Hyperoxia-exposed animals were housed in standard cages placed in a 38-L Plexiglas chamber with a continuous flow of blended oxygen (2 L/min). Oxygen concentrations were monitored twice daily via an oxygen analyzer (miniOX I; MSA Medical, Gurnee, Ill.). To control for oxygen exposures, nursing dams were rotated between paired litters during weekly cage changes. Ventilator studies were conducted and/or tissue harvested within 24 hours of removal from hyperoxia at 3 weeks. A subgroup of animals was returned to room air following 3 weeks of initial hyperoxia exposure and subsequently recovered to 6 weeks of age for adult lung mechanic and GSNOR activity studies.
N6022 is a selective small molecule reversible inhibitor of GSNOR. Powdered N6022 (Nivalis Therapeutics, Boulder, Colo., purchased through MedChem Express, Monmouth Junction, N.J.) was reconstituted in sterile PBS (pH 7.4) and administered to hyperoxia exposed mice as a single 1 mg/kg i.p. injection the day prior to testing lung mechanics.
Under general anesthesia (i.p. ketamine/xylazine), mice were placed supine on a heated surgical table, tracheostomized, and ventilated via a 19-gauge blunt-tip cannula with a commercial rodent ventilator (flexiVent; SCIREQ, Montreal, Canada). Animals were paralyzed (i.p. pancuronium bromide; Sigma-Aldrich) and ventilated at default settings: tidal volume of 10 mL/kg, a rate of 150 breaths/min, a positive end expiratory pressure of 3 cm H2O, and a FiO2 of 50%. Following two recruitment deep inflations of sustained inspiration up to a pressure of 30 cm H2O for 3 seconds, 10 mM GSNO or saline vehicle was aerosolized over 10 seconds using an ultrasonic nebulizer (Aeroneb; SCIREQ) diverted into the ventilator's inspiratory flow. Inhaled GSNO concentration was chosen based upon the published studies in ventilated guinea pigs and human trials in cystic fibrosis. After 5 minutes had elapsed, two recruitment deep inflations were again delivered, and increasing methacholine doses of 0, 12.5, 25, 50, 100, and 200 mg/mL were similarly aerosolized over 10 seconds to generate a dose-response curve. Using computer software (flexiWare 5.1, Version 7.2, SCIREQ), five measurements of respiratory system resistance (Rrs) were calculated by a 2.5 Hz single-frequency forced oscillation maneuver (Snapshot 150), and an average was reported for each methacholine dose. Respiratory mechanics were measured in both 3-week-old mice immediately following sustained hyperoxia exposure and separate 6-week-old mice that were recovered in room air following the initial 3 weeks of hyperoxia exposure.
Data are expressed as means±S.E.M. A minimum of two litters or experiments was used for each study; n represent individual animals or cell transfections. Data containing two groups were first tested for normality and variance and then analyzed by two sample student t test, Welch's t test, or Mann-Whitney U test, as appropriate. For multiple comparisons, analysis of variance with Tukey-Kramer post hoc test was used. Alterations in airway reactivity with increasing doses of methacholine were compared by two-way analysis of variance repeated-measures analysis with Tukey-Kramer post hoc comparisons using a fixed-sequence method from highest to lowest methacholine dose. P, 0.05 was considered statistically significant.

room air-exposed mice = test: Lung mechanics: methacholine challenge in room air-exposed mice, flexiVent Rrs; type: in vivo, C57BL/6 mice; conditions: both ages (3 and 6 weeks), GSNO pretreatment, data not shown
Procedure: Animal protocols were approved by the Institutional Animal Care and Use Committee at Case Western Reserve University (Cleveland, Ohio). Timed pregnant C57BL/6 mice (Charles River Laboratories, Wilmington, Mass.) were maintained on 12-hour light-dark cycles with ad libitum standard food and water. Within 24 hours of birth, litters were pooled and randomized into exposure groups. Paired with a nursing dam, pups were raised in 60% oxygen or room air (21%) for 21 days. Hyperoxia-exposed animals were housed in standard cages placed in a 38-L Plexiglas chamber with a continuous flow of blended oxygen (2 L/min). Oxygen concentrations were monitored twice daily via an oxygen analyzer (miniOX I; MSA Medical, Gurnee, Ill.). […]
Under general anesthesia (i.p. ketamine/xylazine), mice were placed supine on a heated surgical table, tracheostomized, and ventilated via a 19-gauge blunt-tip cannula with a commercial rodent ventilator (flexiVent; SCIREQ, Montreal, Canada). […] Using computer software (flexiWare 5.1, Version 7.2, SCIREQ), five measurements of respiratory system resistance (Rrs) were calculated by a 2.5 Hz single-frequency forced oscillation maneuver (Snapshot 150), and an average was reported for each methacholine dose. […]
Data are expressed as means±S.E.M. A minimum of two litters or experiments was used for each study; n represent individual animals or cell transfections. […]

[1] = Gaston et al. 1994; cited from earlier work

Compound	Rrs in response to aerosolized methacholine challenge (airway hyperreactivity) (hyperoxia-exposed mice; single 1 mg/kg i.p. injection the day prior)	Rrs increase in hyperoxia, methacholine dose response (FIG. 5A-B) (hyperoxia-exposed mice; 1 mg/kg N6022 injection)	Rrs in response to aerosolized methacholine challenge (airway hyperresponsiveness) (hyperoxia-exposed mice; 1 mg/kg i.p. injection)	Rrs compared with room air saline-treated controls (room air-exposed mice)	bronchodilator potency relative to theophylline [1] [fold]	Rrs in response to aerosolized methacholine challenge (airway hyperreactivity) (hyperoxia-exposed mice; pretreatment 10 mM GSNO aerosol over 10 seconds)	Rrs increase in hyperoxia, methacholine dose response (FIG. 5A-B) (hyperoxia-exposed mice; 10 mM GSNO aerosol)	Rrs in response to aerosolized methacholine challenge (airway hyperresponsiveness) (hyperoxia-exposed mice; pretreatment 10 mM GSNO aerosol)
Cc1cc(C(N)=O)ccc1-n1c(CCC(=O)O)ccc1-c1ccc(-n2ccnc2)cc1 [N6022, reference compound]	attenuated these changes as well, such that this group was no longer significantly different from room air controls at all methacholine doses	attenuated these changes	remained effective in attenuating the hyperoxia induced airway hyperresponsiveness					
N[C@@H](CCC(=O)N[C@@H](CSN=O)C(=O)NCC(=O)O)C(=O)O [GSNO, S-nitrosoglutathione]				did not significantly change Rrs	100	attenuated these changes, such that this group was no longer significantly different from room air controls, except at the highest methacholine dose (200 mg/mL)	attenuated these changes	remained effective in attenuating the hyperoxia induced airway hyperresponsiveness
